Tests used:
[1] = molecular target: mouse TAAR1 (Mus musculus (Mouse), UniProt Q923Y8); experiment: Radioligand binding assay on mouse TAAR1
Description: (§1) Membrane Preparation and Radioligand Binding.
HEK-293 cells stably expressing mouse TAAR1 were maintained at 37° C. and 5% CO2 in DMEM high glucose medium, containing fetal calf serum (10%, heat inactivated for 30 min at 56° C.), penicillin/streptomycin (1%), and 375 μg/ml geneticin (Gibco). Cells were released from culture flasks using trypsin/EDTA, harvested, washed twice with ice-cold PBS (without Ca^2+ and Mg^2+), pelleted at 1,000 rpm for 5 min at 4° C., frozen and stored at −80° C. Frozen pellets were suspended in 20 ml HEPES-NaOH (20 mM, pH 7.4) containing 10 mM EDTA and homogenized with a Polytron (PT 6000, Kinematica) at 14,000 rpm for 20 s. The homogenate was centrifuged at 48,000×g for 30 min at 4° C. Subsequently, the supernatant was removed and discarded, and the pellet resuspended in 20 ml HEPES-NaOH (20 mM, pH 7.4) containing 0.1 mM EDTA using the Polytron (20 s at 14,000 rpm). This procedure was repeated and the final pellet resuspended in HEPES-NaOH containing 0.1 mM EDTA and homogenized using the Polytron. Typically, aliquots of 2 ml membrane portions were stored at −80° C. With each new membrane batch the dissociation constant (Kd) was determined via a saturation curve. […] Nonspecific binding was defined as the amount of ^3[H]—(S)-4-[(ethyl-phenyl-amino)-methyl]-4,5-dihydro-oxazol-2-ylamine bound in the presence of 10 M unlabeled ligand. All compounds were tested at a broad range of concentrations (10 pM to 10 μM) in duplicates. […] The 96 deep well plates were incubated for 1 hr at 4° C. Incubations were terminated by rapid filtration through Unifilter-96 plates (Packard Instrument Company) and glass filters GF/C (Perkin Elmer) presoaked for 1 hr in polyethylenimine (0.3%) and washed 3 times with 1 ml of cold binding buffer. After addition of 45 μl of Microscint 40 (PerkinElmer) the Unifilter-96 plate was sealed and after 1 hr the radioactivity counted using a TopCount Microplate Scintillation Counter (Packard Instrument Company).

[2] = molecular target: rat TAAR1 (Rattus norvegicus (Rat), UniProt Q923Y9); experiment: Radioligand binding assay on rat TAAR1; conditions: read-out: Ki(μM) rat; rat TAAR1, HEK-293 membranes, second value of cell pair mouse/rat
rat TAAR1, sequence (Q923Y9 whole entry): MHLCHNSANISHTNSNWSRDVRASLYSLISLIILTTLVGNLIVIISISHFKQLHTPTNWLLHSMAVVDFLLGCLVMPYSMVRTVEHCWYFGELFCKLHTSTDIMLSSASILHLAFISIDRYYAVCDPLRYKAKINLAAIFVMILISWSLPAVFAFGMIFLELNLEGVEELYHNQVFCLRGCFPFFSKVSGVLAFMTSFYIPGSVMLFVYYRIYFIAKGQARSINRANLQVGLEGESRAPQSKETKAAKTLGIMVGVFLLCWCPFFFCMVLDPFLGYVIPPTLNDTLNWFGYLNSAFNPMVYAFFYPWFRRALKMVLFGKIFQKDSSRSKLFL
Description: as §1
HEK-293 cells stably expressing rat TAAR1 were maintained at 37° C. and 5% CO2 in DMEM high glucose medium, containing fetal calf serum (10%, heat inactivated for 30 min at 56° C.), penicillin/streptomycin (1%), and 375 μg/ml geneticin (Gibco). Cells were released from culture flasks using trypsin/EDTA, harvested, washed twice with ice-cold PBS (without Ca^2+ and Mg^2+), pelleted at 1,000 rpm for 5 min at 4° C., frozen and stored at −80° C. Frozen pellets were suspended in 20 ml HEPES-NaOH (20 mM, pH 7.4) containing 10 mM EDTA and homogenized with a Polytron (PT 6000, Kinematica) at 14,000 rpm for 20 s. The homogenate was centrifuged at 48,000×g for 30 min at 4° C. Subsequently, the supernatant was removed and discarded, and the pellet resuspended in 20 ml HEPES-NaOH (20 mM, pH 7.4) containing 0.1 mM EDTA using the Polytron (20 s at 14,000 rpm). This procedure was repeated and the final pellet resuspended in HEPES-NaOH containing 0.1 mM EDTA and homogenized using the Polytron. Typically, aliquots of 2 ml membrane portions were stored at −80° C. With each new membrane batch the dissociation constant (Kd) was determined via a saturation curve. […] Nonspecific binding was defined as the amount of [H]—(S)-4-[(ethyl-phenyl-amino)-methyl]-4,5-dihydro-oxazol-2-ylamine bound in the presence of 10 M unlabeled ligand. All compounds were tested at a broad range of concentrations (10 pM to 10 μM) in duplicates. […] The 96 deep well plates were incubated for 1 hr at 4° C. Incubations were terminated by rapid filtration through Unifilter-96 plates (Packard Instrument Company) and glass filters GF/C (Perkin Elmer) presoaked for 1 hr in polyethylenimine (0.3%) and washed 3 times with 1 ml of cold binding buffer. After addition of 45 μl of Microscint 40 (PerkinElmer) the Unifilter-96 plate was sealed and after 1 hr the radioactivity counted using a TopCount Microplate Scintillation Counter (Packard Instrument Company).

mouse TAAR1, sequence (Q923Y8 whole entry): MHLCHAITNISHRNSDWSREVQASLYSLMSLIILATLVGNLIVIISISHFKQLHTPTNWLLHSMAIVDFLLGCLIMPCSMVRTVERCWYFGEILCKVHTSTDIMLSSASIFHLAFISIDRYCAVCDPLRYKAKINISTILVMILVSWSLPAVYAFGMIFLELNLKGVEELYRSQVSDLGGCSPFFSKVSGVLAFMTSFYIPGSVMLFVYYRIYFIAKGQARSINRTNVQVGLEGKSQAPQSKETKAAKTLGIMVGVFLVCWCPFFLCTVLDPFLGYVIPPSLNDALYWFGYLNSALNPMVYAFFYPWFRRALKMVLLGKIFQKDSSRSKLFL

| Ki [1] [nM] | Ki [2] [µM] | SMILES |
| --- | --- | --- |
| 1570 | 0.701 | c1ccc(CC2CNC2)cc1 [Example 1, 3-benzylazetidine] |
| 77.7 | 0.66 | O=C(Nc1ccc(NC2CNC2)cc1)c1ccnc(C(F)(F)F)c1 [Example 3, N-[4-(azetidin-3-ylamino)phenyl]-2-(trifluoromethyl)pyridine-4-carboxamide] |
| 12.3 |  | O=C(Nc1ccc(OC2CNC2)cc1)c1ccnc(C(F)(F)F)c1 [Example 5, N-(4-(azetidin-3-yloxy)phenyl)-2-(trifluoromethyl)isonicotinamide] |
| 19.5 |  | O=C(Nc1ccc(OC2CNC2)cc1)c1cnc(C(F)(F)F)nc1 [Example 6, N-(4-(azetidin-3-yloxy)phenyl)-2-(trifluoromethyl)pyrimidine-5-carboxamide] |
| 5.6 |  | COc1cc(C(=O)Nc2ccc(OC3CNC3)cc2)cc(C#N)n1 [Example 7, N-(4-(azetidin-3-yloxy)phenyl)-2-cyano-6-methoxyisonicotinamide] |
| 55 | 0.165 | FC(F)(F)c1nccc(Nc2ccc(OC3CNC3)cc2)n1 [Example 8, N-[4-(azetidin-3-yloxy)phenyl]-2-(trifluoromethyl)pyrimidin-4-amine] |
| 47.7 | 0.105 | FC(F)(F)c1cnc(Nc2ccc(OC3CNC3)cc2)nc1 [Example 9, N-(4-(azetidin-3-yloxy)phenyl)-5-(trifluoromethyl)pyrimidin-2-amine] |
| 414 | 0.0887 | O=C(Nc1ccc(OC2CNC2)cc1)c1cc(C2CC2)n[nH]1 [Example 10, N-(4-(azetidin-3-yloxy)phenyl)-3-cyclopropyl-1H-pyrazole-5-carboxamide] |
| 64.5 | 0.0808 | CCc1n[nH]c(C(=O)Nc2ccc(OC3CNC3)cc2)c1C [Example 11, N-(4-(azetidin-3-yloxy)phenyl)-3-ethyl-4-methyl-1H-pyrazole-5-carboxamide] |
| 137 | 0.0927 | CC(C)c1cc(C(=O)Nc2ccc(OC3CNC3)cc2)[nH]n1 [Example 12, N-(4-(azetidin-3-yloxy)phenyl)-3-isopropyl-1H-pyrazole-5-carboxamide] |
| 3.3 | 0.0178 | O=C(Nc1ccc(OC2CNC2)cc1)c1[nH]nc(C2CC2)c1Cl [Example 13, N-(4-(azetidin-3-yloxy)phenyl)-4-chloro-3-cyclopropyl-1H-pyrazole-5-carboxamide] |
| 14.9 | 0.1 | O=C(Nc1ccc(OC2CNC2)cc1)c1cnc(C2CC2)nc1 [Example 14, N-(4-(azetidin-3-yloxy)phenyl)-2-cyclopropylpyrimidine-5-carboxamide] |
| 57.1 | 0.261 | CCc1ncc(C(=O)Nc2ccc(OC3CNC3)cc2)cn1 [Example 15, N-[4-(azetidin-3-yloxy)phenyl]-2-ethyl-pyrimidine-5-carboxamide] |
| 74.6 | 0.633 | Cc1ncc(C(=O)Nc2ccc(OC3CNC3)cc2)cn1 [Example 16, N-[4-(azetidin-3-yloxy)phenyl]-2-methyl-pyrimidine-5-carboxamide] |
| 72.9 | 0.0969 | Cn1nc(C(F)(F)F)cc1C(=O)Nc1ccc(OC2CNC2)cc1 [Example 17, N-[4-(azetidin-3-yloxy)phenyl]-2-methyl-5-(trifluoromethyl)pyrazole-3-carboxamide] |
| 12.8 | 0.0208 | O=C(Nc1ccc(OC2CNC2)cc1)c1cnc(OCC(F)(F)F)nc1 [Example 19, N-(4-(azetidin-3-yloxy)phenyl)-2-(2,2,2-trifluoroethoxy)pyrimidine-5-carboxamide] |

| Ki [1] [nM] | Ki [2] [µM] | SMILES |
| --- | --- | --- |
| 478 | 1.03 | O=C(Nc1ccccc1)c1ccc(OC2CNC2)cc1 [Example 20, 4-(azetidin-3-yloxy)-N-phenyl-benzamide] |
| 2030 | 0.0672 | CCn1cc(Cl)c(C(=O)Nc2ccc(OC3CNC3)cc2)n1 [Example 22, N-[4-(azetidin-3-yloxy)phenyl]-4-chloro-1-ethyl-pyrazole-3-carboxamide] |
| 9.9 | 0.038 | O=C(Nc1ccc(Cl)cc1)c1ccc(OC2CNC2)cc1 [Example 23, 4-(azetidin-3-yloxy)-N-(4-chlorophenyl)benzamide] |
| 32.8 | 0.0701 | O=C(Nc1ccc(OC2CNC2)cc1)c1cc(C(F)(F)F)n[nH]1 [Example 24, N-(4-(azetidin-3-yloxy)phenyl)-3-(trifluoromethyl)-1H-pyrazole-5-carboxamide] |
| 3 | 0.0113 | O=C(Nc1ccc(OC2CNC2)c(F)c1)c1[nH]nc(C2CC2)c1Cl [Example 25, N-[4-(azetidin-3-yloxy)-3-fluoro-phenyl]-4-chloro-3-cyclopropyl-1H-pyrazole-5-carboxamide] |
| 16.1 | 0.0238 | O=C(Nc1ccc(OC2CNC2)c(F)c1)c1cnc(C(F)(F)F)nc1 [Example 26, N-[4-(azetidin-3-yloxy)-3-fluoro-phenyl]-2-(trifluoromethyl)pyrimidine-5-carboxamide] |
| 15.5 |  | O=C(Nc1ccc(OC2CNC2)c(F)c1)c1cnc(C2CC2)nc1 [Example 27, N-[4-(azetidin-3-yloxy)-3-fluoro-phenyl]-2-cyclopropyl-pyrimidine-5-carboxamide] |
| 9.6 | 0.0284 | CCOc1ccc(C(=O)Nc2ccc(OC3CNC3)c(F)c2)cn1 [Example 28, N-[4-(azetidin-3-yloxy)-3-fluoro-phenyl]-6-ethoxy-pyridine-3-carboxamide] |
| 13.4 | 0.0145 | CC(C)(C)c1n[nH]c(C(=O)Nc2ccc(OC3CNC3)cc2)c1Cl [Example 32, N-[4-(azetidin-3-yloxy)phenyl]-3-tert-butyl-4-chloro-1H-pyrazole-5-carboxamide] |
| 7.5 | 0.0115 | CC(C)c1n[nH]c(C(=O)Nc2ccc(OC3CNC3)cc2)c1Cl [Example 33, N-[4-(azetidin-3-yloxy)phenyl]-4-chloro-3-isopropyl-1H-pyrazole-5-carboxamide] |
| 0.9 | 0.0021 | O=C(Nc1ccc(OC2CNC2)cc1)c1[nH]nc(-c2ccc(Cl)cc2)c1Cl [Example 34, N-[4-(azetidin-3-yloxy)phenyl]-4-chloro-3-(4-chlorophenyl)-1H-pyrazole-5-carboxamide] |
| 3.1 | 0.0466 | O=C(Nc1ccc(SC2CNC2)cc1)c1[nH]nc(C2CC2)c1Cl [Example 35, N-[4-(azetidin-3-ylsulfanyl)phenyl]-4-chloro-3-cyclopropyl-1H-pyrazole-5-carboxamide] |
| 0.7 | 0.0026 | O=C(Nc1ccc(Cl)c(C(F)(F)F)c1)c1ccc(OC2CNC2)cc1 [Example 37, 4-(azetidin-3-yloxy)-N-(4-chloro-3-(trifluoromethyl)phenyl)benzamide] |
| 35.1 | 0.853 | O=C(Nc1ccc(OC2CNC2)cc1F)c1cnc(C2CC2)nc1 [Example 38, N-[4-(azetidin-3-yloxy)-2-fluoro-phenyl]-2-cyclopropyl-pyrimidine-5-carboxamide] |
| 2.8 | 0.0142 | O=C(Nc1ccc(OC2CNC2)cc1)c1[nH]nc(C(F)(F)F)c1Cl [Example 40, N-[4-(azetidin-3-yloxy)phenyl]-4-chloro-3-(trifluoromethyl)-1H-pyrazole-5-carboxamide] |

| SMILES | Ki [1] [nM] | Ki [2] [µM] |
| --- | --- | --- |
| CN(c1ccc(NC(=O)c2ccnc(C(F)(F)F)c2)cc1)C1CNC1 [Example 2, N-[4-[azetidin-3-yl(methyl)amino]phenyl]-2-(trifluoromethyl)pyridine-4-carboxamide] | 27.2 | 0.211 |
| O=C(Nc1ccc(OC2CNC2)cc1)c1ccc(Cl)cc1 [Example 4, N-(4-(azetidin-3-yloxy)phenyl)-4-chlorobenzamide] | 1.1 | 0.0087 |
| O=C(NCc1ccc(F)cc1)c1ccc(OC2CNC2)cc1 [Example 18, 4-(azetidin-3-yloxy)-N-[(4-fluorophenyl)methyl]benzamide] | 109 | 1.63 |
| O=C(Nc1ccc(OC2CNC2)cc1)c1nn(CC(F)(F)F)cc1Cl [Example 21, N-[4-(azetidin-3-yloxy)phenyl]-4-chloro-1-(2,2,2-trifluoroethyl)pyrazole-3-carboxamide] | 653 | 0.0207 |
| Cn1nc(C(F)(F)F)c(Cl)c1C(=O)Nc1ccc(OC2CNC2)cc1 [Example 29, N-[4-(azetidin-3-yloxy)phenyl]-4-chloro-2-methyl-5-(trifluoromethyl)pyrazole-3-carboxamide] | 29 | 0.0503 |
| O=C(Nc1ccc(Cl)nc1)c1ccc(OC2CNC2)cc1 [Example 30, 4-(azetidin-3-yloxy)-N-(6-chloropyridin-3-yl)benzamide] | 19.1 | 0.527 |
| O=C(Nc1ccc(OC2CNC2)cc1)c1[nH]nc(C2CC2)c1Br [Example 31, N-[4-(azetidin-3-yloxy)phenyl]-4-bromo-3-cyclopropyl-1H-pyrazole-5-carboxamide] | 3.6 | 0.0151 |
| O=C(Nc1ccc(OC2CNC2)cc1F)c1[nH]nc(C2CC2)c1Cl [Example 36, N-[4-(azetidin-3-yloxy)-2-fluoro-phenyl]-4-chloro-3-cyclopropyl-1H-pyrazole-5-carboxamide] | 13.9 | 0.029 |
| O=C(Nc1ccc(OC2CNC2)cc1F)c1cnc(C(F)(F)F)nc1 [Example 39, N-[4-(azetidin-3-yloxy)-2-fluoro-phenyl]-2-(trifluoromethyl)pyrimidine-5-carboxamide] | 62.8 | 0.476 |
| COc1ccc(C[C@@H]2NC[C@@H]2F)cc1 [Example 96, (2S,3S)-3-fluoro-2-(4-methoxybenzyl)azetidine] | 2760 |  |
| COc1ccc(C[C@@H]2NC[C@H]2F)cc1 [Example 97, (2S,3R)-3-fluoro-2-(4-methoxybenzyl)azetidine] | 1630 |  |
| COc1ccc(C[C@H]2NC[C@H]2F)cc1 [Example 98, (2R,3R)-3-fluoro-2-(4-methoxybenzyl)azetidine] | 200 |  |
| COc1ccc(C[C@H]2NC[C@@H]2F)cc1 [Example 99, (2R,3S)-3-fluoro-2-(4-methoxybenzyl)azetidine] | 200 |  |
